Source: the supplement of paper PMC10307832

Legend:
Assay in all cases: relative viability (nuclei count vs DMSO), 5 days (fraction); higher = more cells survive
[1] = compound: COc1cc2/c(=N/c3ccc(Br)cc3F)nc[nH]c2cc1OCC1CCN(C)CC1 [Vandetanib] + C[C@@H](Oc1cc(-c2cnn(C3CCNCC3)c2)cnc1N)c1c(Cl)ccc(F)c1Cl [Crizotinib] (partner 1 µM)
Method in brief: (§1)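 Values are medians from duplicate plates. Each reflects relative viability, defined as the nuclei count of treated wells over that of vehicle wells. Lung cancer cell lines in 1536-well plates were pin-tool dosed one day after seeding with one drug alone or with a fixed anchor-drug dose plus five library-drug doses (not always all listed) in √10 steps, then fixed, stained and imaged at 4× after 5 days.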

[2] = compound: COc1cc2/c(=N/c3ccc(Br)cc3F)nc[nH]c2cc1OCC1CCN(C)CC1 [Vandetanib] + Nc1ncn([C@H]2C[C@H](O)[C@@H](CO)O2)c(=O)n1 [Decitabine] (partner 2 µM)
Method in brief: as §1

[3] = compound: COc1cc(N2CCC(N3CCN(C)CC3)CC2)ccc1Nc1ncc(Cl)c(Nc2ccccc2S(=O)(=O)C(C)C)n1 [NVP-TAE684] + CS(=O)(=O)CCNCc1ccc(-c2ccc3ncnc(Nc4ccc(OCc5cccc(F)c5)c(Cl)c4)c3c2)o1 [Lapatinib] (partner 2 µM)
Method in brief: as §1

[4] = compound: C1=CC=C2C(=C1)N=C(S2)C(C#N)C3=NC(=NC=C3)NCCC4=CN=CC=C4 + CS(=O)(=O)N1CCN(Cc2cc3nc(-c4cccc5[nH]ncc45)nc(N4CCOCC4)c3s2)CC1 [Pictilisib] (partner 1 µM)
Method in brief: as §1

Row | Cell Line | relative viability ([1]; first compound 0.02 µM) | relative viability ([1]; first compound 0.06325 µM) | relative viability ([1]; first compound 0.2 µM) | relative viability ([1]; first compound 0.6325 µM) | relative viability ([1]; first compound 2 µM) | relative viability ([2]; first compound 0.02 µM) | relative viability ([2]; first compound 0.06325 µM) | relative viability ([2]; first compound 0.2 µM) | relative viability ([2]; first compound 0.6325 µM) | relative viability ([2]; first compound 2 µM) | relative viability ([3]; first compound 0.2 µM) | relative viability ([3]; first compound 0.6325 µM) | relative viability ([3]; first compound 2 µM) | relative viability ([4]; first compound 0.005 µM) | relative viability ([4]; first compound 0.01581 µM) | relative viability ([4]; first compound 0.05 µM) | relative viability ([4]; first compound 0.1581 µM) | relative viability ([4]; first compound 0.5 µM)
1 | EMC-BAC-2 | 0.764 | 0.778 | 0.432 | 0.765 | 0.708 | 1.03 | 0.938 | 0.902 | 0.966 | 0.905 | 0.856 | 0.805 | 0.586 | 0.492 | 0.512 | 0.484 | 0.572 | 0.501
2 | NCI-H1437 | 0.842 | 0.894 | 0.895 | 0.958 | 0.954 | 0.534 | 0.559 | 0.556 | 0.551 | 0.545 | 0.874 | 0.729 | 0.418 | 0.474 | 0.39 | 0.398 | 0.539 | 0.361
3 | NCI-H1944 | 1.01 | 1.1 | 1.15 | 1.07 | 0.942 | 0.411 | 0.489 | 0.551 | 0.463 | 0.447 |  | 0.798 | 0.607 | 0.369 | 0.33 | 0.355 | 0.362 | 0.319
4 | NCI-H838 | 0.819 | 0.846 | 0.898 | 0.819 | 0.724 | 0.489 | 0.399 | 0.503 | 0.457 | 0.451 | 1.12 | 0.758 | 0.287 | 0.463 | 0.413 | 0.439 | 0.612 | 0.391
5 | HCC-827 | 0.983 | 0.93 | 0.851 | 0.242 | 0.192 | 0.361 | 0.302 | 0.335 | 0.191 | 0.152 | 0.187 | 0.203 | 0.207 | 0.982 | 0.912 | 0.864 | 1.25 | 1.09
6 | NCI-H2342 |  |  |  |  |  | 0.727 | 0.75 | 0.8 | 0.699 | 0.723 |  |  |  |  |  |  |  | 
7 | LOU-NH91 | 0.766 | 0.656 | 0.637 | 0.558 | 0.533 | 0.816 | 0.734 | 0.681 | 0.679 | 0.66 | 0.781 | 0.648 | 0.516 | 0.51 | 0.515 | 0.477 | 0.533 | 0.489
8 | NCI-H3122 | 0.291 | 0.257 | 0.266 | 0.261 | 0.249 | 0.454 | 0.39 | 0.178 | 0.456 | 0.481 | 0.369 | 0.213 | 0.18 | 0.62 | 0.655 | 0.603 | 0.613 | 0.64
9 | NCI-H1563 | 0.887 | 0.835 | 0.794 | 0.852 | 0.858 |  |  |  |  |  | 0.95 | 0.858 | 0.655 | 0.642 | 0.619 | 0.677 | 0.709 | 0.647
10 | NCI-H1734 | 0.737 | 0.618 | 0.67 | 0.639 | 0.648 | 0.495 | 0.494 | 0.537 | 0.526 | 0.513 | 1.26 | 0.983 | 0.698 | 0.439 | 0.488 | 0.406 | 0.587 | 0.473
11 | EPLC-272H | 1.01 | 0.732 | 0.961 | 0.845 | 0.917 | 0.381 | 0.35 | 0.343 | 0.364 | 0.314 | 0.813 |  | 0.955 | 0.271 | 0.277 | 0.288 | 0.352 | 0.267
12 | RERF-LC-KJ | 0.83 | 0.789 | 0.871 | 0.883 | 0.794 | 0.711 | 0.74 | 0.737 | 0.665 | 0.555 | 0.871 | 0.867 | 0.905 | 0.739 | 0.64 | 0.48 | 0.529 | 0.403
13 | EBC-1 | 0.19 | 0.177 | 0.195 | 0.194 | 0.152 |  |  |  |  |  | 0.221 | 0.223 | 0.192 | 0.398 | 0.363 | 0.352 | 0.368 | 0.275
14 | HARA | 1.04 | 1.02 | 1.01 | 0.998 | 0.956 | 0.466 | 0.653 | 0.515 | 0.559 | 0.578 | 1.09 | 0.626 | 0.232 | 0.324 | 0.349 | 0.368 | 0.611 | 0.298
15 | NCI-H1651 | 0.837 | 0.851 | 0.831 | 0.898 | 0.781 | 0.609 | 0.583 | 0.572 | 0.628 | 0.45 | 0.998 | 0.834 | 0.563 | 0.364 | 0.585 | 0.68 | 0.815 | 0.565
16 | NCI-H2405 | 0.876 | 0.664 | 0.875 | 0.88 | 0.795 | 0.749 | 0.687 | 0.747 | 0.8 | 0.718 | 1.26 | 0.815 | 0.55 | 0.456 | 0.378 | 0.397 | 0.506 | 0.422
17 | NCI-H596 | 0.907 | 0.872 | 1.2 | 1.12 | 0.81 | 0.986 | 0.98 | 0.983 | 0.979 | 0.978 | 0.915 | 0.949 | 0.893 | 0.378 | 0.349 | 0.383 | 0.46 | 0.392
18 | NCI-H2009 | 1.06 | 0.964 | 1.08 | 1.02 | 1.03 | 0.359 | 0.394 | 0.369 | 0.371 | 0.325 | 0.938 | 0.888 | 0.731 | 0.853 | 0.644 | 0.845 | 1 | 0.835
19 | NCI-H2170 | 1.22 | 1.26 | 1.11 | 1.18 | 1.1 | 0.44 | 0.478 | 0.472 | 0.458 | 0.455 | 0.253 | 0.244 | 0.247 |  | 0.298 | 0.292 | 0.394 | 0.32
